Common to all, as to type: cell-based
For assay [1], the system named is human vulvar fibroblasts. The assay can be described thus: In vitro LPV model: SPM pre-treatment of patient vestibular/vulvar fibroblasts before inflammatory stimulation, IL-6 and PGE2 by ELISA/EIA. The note with it: for IL-6 production / PGE2 production: pre-treated 18 h at 5 nM, again 30 min prior to activation, IL-1β 10 pg/ml 48 h, booster at 24 h; for IL-6 production: FIG. 23A; for PGE2 production: FIG. 23B; for prostaglandin E2 (PGE2) production / interleukin-6 (IL-6) production: pre-treated 10 hours with 5 nM SPM, vestibular and external vulvar fibroblasts; for prostaglandin E2 (PGE2) production: then IL-1β 10 pg/ml 48 hr, FIG. 5A; for interleukin-6 (IL-6) production: then bradykinin 100 nM 48 hr, FIG. 5B; for effect on proinflammatory mediators linked to pain, initial tests: pre-treatment strategy, human vulvar fibroblasts. The procedure: (§1) FIGS. 5A, 5B, 5C, and 5D are a set of diagrams showing that PGE2 and IL-6 production is reduced by SPMs. Patient vestibular or vulvar fibroblasts were pre-treated for 10 hours with Lipoxin A4 (LxA4), Resolvin D2 (RvD2), (7R)-Maresin 1 or epi(7S)-Maresin 1 at a 5 nM concentration, then activated with IL-1β (Panel A; 10 pg/ml) or bradykinin (Panel B; 100 nM) for 48 hr. Culture media were collected and analyzed for PGE2 (Panel A) or IL-6 (Panel B) content. Patient fibroblasts were also activated first with IL-1β for 30 min then treated with 5 nM (7R)-Maresin 1 or LXA4 for 18 hours, followed by a booster dose for 6 hr. Culture media were collected and analyzed for PGE2 (Panel C) or IL-6 (Panel D) content. Mean+/−SEM of n=3, ANOVA *p<0.05 vs. activation only (no SPM).
FIGS. 23A and 23B are diagrams showing six SPMs are effective in reducing IL-6 and PGE2 production from fibroblasts when used as a pre-treatment and post-treatment. Patient vestibular or vulvar fibroblasts were pre-treated for 18 h with Resolvin D3 (RvD3), Resolvin D4 (RvD4), Resolvin D5 (RvD5), Resolvin E1 (RvE1), Protectin D1 or Protectin DX at a 5 nM concentration, pre-treated again for 30 min prior to activation, then activated with 10 pg/ml IL-1β for 48 h with a booster SPM dose at 24 h. Culture media were collected and analyzed for IL-6 (Panel A) and PGE2 (Panel B). Mean+/−SEM of n=6 (two cases run in triplicate), ANOVA *p<0.05 vs. activation only (IL-1b).
(§2) In this example, a fibroblast-based in vitro LPV model was established. Briefly, fibroblast strains were obtained from two regions (FIG. 1) of the lower genital tract of localized provoked vulvodynia (LPV) cases and pain-free controls in the manner described in Falsetta et al. Am J Obstet Gynecol 2015, vol. 213, pp. 38 e1-12 and Foster et al., Pain 2015, vol. 156, pp. 386-96.
(§3) Over 30 paired fibroblast strains obtained from LPV-afflicted cases (fulfilling Friedrich's Criteria)^25 and age/race-matched (critical variables influencing LPV),^26, 27 pain-free controls were obtained. All subjects who contributed to the library were premenopausal, denied oral corticosteroids, non-steroidal, immunomodulatory, or anti-inflammatory medication use, and reported an absence of systemic/cutaneous inflammatory conditions at the time of sample collection. Mechanical pain thresholds were determined (via a method of limits) (0.5-5 N) using a Wagner algometer. Fibroblast identity was confirmed by microscopy and fibroblast markers (vimentin, collagen); only low passage (˜4) cells are used.
(§4) Synthesized, purified and commercially available SPMs from each known SPM class (E-series Resolvins, D-series Resolvins, Maresins, Protectins and Lipoxins) at low/nanomolar concentrations (1-100 nM) were tested. […] The inventors used one of two treatment regimens proven effective in vulvar fibroblasts and other cells: 1) overnight pre-treatment, followed by another treatment 30 min prior to stimulation with proinflammatory stimuli for 48 hr with a third dose of SPMs at 24 hr post-challenge, or 2) post-treatment with SPMs after a 30 min pre-treatment with inflammatory stimuli, followed by a booster dose 18 hr later. Both treatment regimens are of interest, as SPMs are active throughout the inflammatory process.^5-7 Even SPMs administered after LPV onset are likely to prevent the worsening or spread of LPV pain.
Next, SPMs from other classes (E series Resolvins and Protectins), as well as additional SPMs from classes containing members that are effective in reducing IL-6 and PGE2 production (e.g., Maresins) were investigated in similar screen. […] SPMs that were effective in reducing more than one proinflammatory mediator in at least 2 tests can be examined for further testing using a preclinical mouse model. […] These additional effective SPMs include Resolvin D3, Resolvin D4, Resolvin D5, Resolvin E1, Protectin D1, and Protectin DX. […]

The test system of assay [2] is human vulvar fibroblasts. Briefly: In vitro LPV model: SPM post-treatment of already activated patient fibroblasts, IL-6 and PGE2. Conditions: post-treatment: IL-1β 30 min; for IL-6 production / PGE2 production: then 5 nM 18 hours, booster dose 24 hr; for IL-6 production: FIG. 24A; for PGE2 production: FIG. 24B. The procedure:
as §1
FIGS. 24A and 24B are diagrams showing that six SPMs are effective in reducing IL-6 and PGE2 production from fibroblasts when used as a post-treatment. Patient vestibular or vulvar fibroblasts were activated first with IL-1β for 30 min then treated with RvD3, RvD4, RvD5, RvE1, Protectin D1 or Protectin DX at a 5 nM concentration for 18 hours, followed by a booster SPM dose for 24 hr. Culture media were collected and analyzed for IL-6 (Panel A) and PGE2 (Panel B) content. Mean+/−SEM of n=6 (two cases run in triplicate), ANOVA *p<0.05 vs. activation only (IL-1b). […] The magnitude of reduction was not as great as pre-treatment, but equally significant as the reduction from pre-treatment regimens.
as §2, §3, §4

Assay [3] relates to Mouse vulvar tissue. Briefly: Mouse vulvar explants (4 mm punch biopsy), IL-1β-stimulated PGE2 production. Conditions: pre-treatment 18 hours, then IL-1β 10 pg/ml 18 hours; range of doses, as low as 1 nM; FIG. 6. The procedure:
FIG. 6 is a diagram showing that SPMs inhibit PGE2 production from mouse vulvar tissue. Mouse vulvar tissue (4 mm punch biopsies) was collected and bisected then pre-treated in culture medium with either Maresin 1 or RvD2 at indicated concentrations for 18 hours, followed by an additional 18 hours stimulation with IL-1β (10 pg/ml). Culture medium was collected and analyzed for PGE2 content. Mean+/−SEM; n=3 replicate cultures. ANOVA * p<0.05 vs. vehicle.
Although SPM structure and therapeutic efficacy is conserved across species,^5-7 inventors first confirmed that mouse vulvar tissues responded to SPM treatment in vitro by culturing mouse vulvar explants (4 mm punch biopsy). The explants were stimulated with IL-1, and then assays were carried to assess the ability of Maresin 1 or RvD2 to reduce PGE2 production under the established pre-treatment regimen.

For the compound `CC/C=C\C[C@H](O)/C=C/C=C\C[C@@H](O)/C=C/C=C/C=C\[C@@H](O)CCC(=O)O` [Resolvin D3, 4S,11R,17S-trihydroxy-docosa-5Z,7E,9E,13Z,15E,19Z-hexaenoic acid], in assay [1], the IL-6 production result is listed as “showed efficacy” and the PGE2 production result was “showed efficacy”. For the same compound, in assay [2], the IL-6 production entry was “showed efficacy” and the PGE2 production entry was “showed efficacy”.
As for `CC/C=C\C[C@H](O)[C@H](O)/C=C/C=C/C=C\C=C\[C@@H](O)C/C=C\CCC(=O)O` [Resolvin D2, 7S,16R,17S-trihydroxy-docosa-4Z,8E,10Z,12E,14E,19Z-hexaenoic acid], in assay [1], the “prostaglandin E2 (PGE2) production” value is on record as “significantly reduced” and the “interleukin-6 (IL-6) production” value is listed as “significantly reduced”. The “PGE2 responses following IL-1β treatment” value in assay [3] is on record as “significantly suppressed”.
As to `CC[C@@H](O)/C=C/C=C\C[C@@H](O)/C=C/C=C/C=C\[C@@H](O)CCCC(=O)O` [Resolvin E1, 5S,12,18-trihydroxy-eicosa-6Z,8E,10E,14Z,16E-pentaenoic acid], in assay [1], the IL-6 production result is given as “showed efficacy” and the PGE2 production entry is “showed efficacy”. In addition, in assay [2], the IL-6 production entry is recorded as “showed efficacy” and the PGE2 production entry was “showed efficacy”.
As to `CC/C=C\C[C@H](O)/C=C/C=C\C/C=C\C=C\[C@@H](O)C/C=C\CCC(=O)O` [Resolvin D5], in assay [1], the IL-6 production result is listed as “showed efficacy” and the PGE2 production result is on record as “showed efficacy”. In addition, in assay [2], the IL-6 production entry is listed as “showed efficacy” and the PGE2 production entry was “showed efficacy”.
Regarding `CC/C=C\C[C@H](O)/C=C/C=C\C\C=C/C=C/C=C/[C@@H](O)[C@@H](O)CCC(=O)O` [Resolvin D4, 4S,5,17S-trihydroxy-docosa-6E,8E,10Z,13Z,15E,19Z-hexaenoic acid], in assay [1], the IL-6 production entry is on record as “showed efficacy” and the PGE2 production result was “showed efficacy”. Also, in assay [2], the IL-6 production result is “showed efficacy” and the PGE2 production entry is listed as “showed efficacy”.
Regarding `CC/C=C\C[C@H](O)\C=C/C=C/C=C/[C@H](O)C/C=C\C/C=C\CCC(=O)O` [Protectin D1, 10R,17S-dihydroxy-docosa-4Z,7Z,11E,13E,15Z,19Z-hexaenoic acid], in assay [1], the IL-6 production result is recorded as “showed efficacy” and the PGE2 production result is reported as “showed efficacy”. Also, in assay [2], the IL-6 production entry was “showed efficacy” and the PGE2 production result was “showed efficacy”.
For `CC/C=C\C[C@H](O)/C=C/C=C\C=C\[C@@H](O)C/C=C\C/C=C\CCC(=O)O` [Protectin DX], the IL-6 production result in assay [1] and in assay [2] was “showed efficacy” in each case. In addition, the PGE2 production entry in assay [1] and in assay [2] was “showed efficacy” in each case.
For the compound `CCCCC[C@H](O)[C@H](O)/C=C/C=C/C=C\C=C\[C@@H](O)CCCC(=O)O` [Lipoxin B4], the “effect on proinflammatory mediators linked to pain, initial tests” value (from here on “effect”) in assay [1] was “no striking effects”.
On the same count and under the same terms, in the case of `CC/C=C\C[C@H](O)/C=C/C=C\C=C\C=C\[C@@H](O)[C@@H](O)C/C=C\CCC(=O)O` [Resolvin D1, 7S,8R,17S-trihydroxy-docosa-4Z,9E,11E,13Z,15E,19Z-hexaenoic acid] it was “no striking effects”.
On to `CC/C=C\C/C=C\C[C@H](O)\C=C/C=C/C=C/[C@@H](O)C/C=C\CCC(=O)O` [epi-Maresin 1, 7S,14S-docosa-4Z,8E,10E,12Z,16Z,19Z-hexaenoic acid], for which, in assay [1], the “prostaglandin E2 (PGE2) production” value was “significantly reduced” and the “interleukin-6 (IL-6) production” value is “significantly reduced”.
As for `CCCCC[C@H](O)/C=C/C=C\C=C\C=C\[C@@H](O)[C@@H](O)CCCC(=O)O` [Lipoxin A4, 5S,6R,15S-trihydroxy-eicosa-7E,9E,11Z,13E-tetraenoic acid], in assay [1], the “prostaglandin E2 (PGE2) production” value is “significantly reduced” and the “interleukin-6 (IL-6) production” value is on record as “significantly reduced”. In addition, the PGE2 levels entry in assay [2] (then 5 nM SPM 18 hours, booster dose 6 hr, FIG. 5C) is “significantly reduced”. Moreover, the IL-6 levels result in assay [2] (then 5 nM SPM 18 hours, booster dose 6 hr, FIG. 5D) is “significantly reduced”.
On to `CC/C=C\C[C@H](O)/C=C/C=C\C/C=C\C/C=C\C/C=C\CCC(=O)O` [17(S)-HDHA, 17(S)-hydroxy docosahexaenoic acid], for which, in assay [1], the “effect” value is reported as “no striking effects”.
Consider `CC/C=C\C[C@@H](O)/C=C/C=C\C=C\C=C\[C@@H](O)[C@@H](O)C/C=C\CCC(=O)O` [AT-Resolvin D1, 7S,8R,17R-trihydroxy-docosa-4Z,9E,11E,13Z,15E,19Z-hexaenoic acid], for which, in assay [1], the “effect” value is on record as “no striking effects”.
